Source: paper PMC7377239, “Cardiovascular Effects of Polychlorinated Biphenyls and Their Major Metabolites” (Environmental Health Perspectives, 2020)
Counter-ions that a name gives are not always drawn.

Tested on: iPSC-CMs, iPSC-ECs and HUVECs phenotypes
Assay: ToxPi 2.0 integration of POD values and physicochemical descriptors
Design: species or system human
Details: ToxPi-scaled (0-1) score; for huvec.cyto.24hr / huvec.mito.24hr / huvec.mitoint.24hr / huvec.nma.24hr / huvec.tc.24hr / huvec.mtl.18hr / huvec.tlps.18hr / huvec.tta.18hr / huvec.ttl.18hr: HUVECs; for huvec.mtl.18hr / huvec.tlps.18hr / huvec.tta.18hr / huvec.ttl.18hr / endo.mtl.18hr / endo.tlps.18hr / endo.tta.18hr / endo.ttl.18hr: tube formation; for cm.amp.avg.90min / cm.amp.cv.90min / cm.bpm.90min / cm.cam.90min / cm.decay.rise.90min / cm.mii.90min / cm.mito.90min / cm.spacing.cv.90min / cm.tc.90min / cm.amp.avg.24hrs / cm.amp.cv.24hrs / cm.bpm.24hrs / cm.cam.24hrs / cm.decay.rise.24hrs / cm.mii.24hrs / cm.mito.24hrs / cm.spacing.cv.24hrs / cm.tc.24hrs: iPSC cardiomyocytes; for endo.cyto.24hr / endo.mito.24hr / endo.mitoint.24hr / endo.nma.24hr / endo.tc.24hr / endo.mtl.18hr / endo.tlps.18hr / endo.tta.18hr / endo.ttl.18hr: iPSC endothelial cells
Method in brief: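 Phenotypic readouts in iPSC-cardiomyocytes, iPSC-endothelial cells and HUVECs were normalised to 0.5% DMSO vehicle and fitted to a four-parameter logistic model. POD set at one SD cutoff of vehicle means, with 100 μM assigned when no response. PODs and physicochemical descriptors combined in ToxPi 2.0 scores.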

Question: O=S(=O)(O)Oc1cc(Cl)c(-c2cc(Cl)ccc2Cl)cc1Cl [4-PCB 52 sulfate] was tested. Which huvec.cyto.24hr did it give?
Answer: 0.3025

Question: And the huvec.mito.24hr?
Answer: 0.4046

Question: And the huvec.mitoint.24hr?
Answer: 0.09717

Question: And the huvec.nma.24hr?
Answer: 0.1382

Question: What about the huvec.tc.24hr of the same compound?
Answer: 0.3025

Question: And the huvec.mtl.18hr?
Answer: 0.4309

Question: And the huvec.tlps.18hr?
Answer: 0.4338

Question: What about the huvec.tta.18hr of the same compound?
Answer: 0

Question: What about the huvec.ttl.18hr of the same compound?
Answer: 0

Question: And the cm.amp.avg.90min?
Answer: 0.5595

Question: And the cm.amp.cv.90min?
Answer: 0.2844

Question: And the cm.bpm.90min?
Answer: 0.3731

Question: And the cm.cam.90min?
Answer: 0.9201

Question: And the cm.decay.rise.90min?
Answer: 0.4741

Question: What about the cm.mii.90min of the same compound?
Answer: 0.3306

Question: And the cm.mito.90min?
Answer: 0.9162

Question: And the cm.spacing.cv.90min?
Answer: 0.09545

Question: And the cm.tc.90min?
Answer: 0.9127

Question: What about the cm.amp.avg.24hrs of the same compound?
Answer: 0

Question: And the cm.amp.cv.24hrs?
Answer: 0.4327

Question: And the cm.bpm.24hrs?
Answer: 0.3667

Question: What about the cm.cam.24hrs of the same compound?
Answer: 0.3358

Question: What about the cm.decay.rise.24hrs of the same compound?
Answer: 0.4673

Question: And the cm.mii.24hrs?
Answer: 0.2133

Question: And the cm.mito.24hrs?
Answer: 0.5368

Question: What about the cm.spacing.cv.24hrs of the same compound?
Answer: 0.207

Question: What about the cm.tc.24hrs of the same compound?
Answer: 0.5686

Question: And the endo.cyto.24hr?
Answer: 0.1547

Question: What about the endo.mito.24hr of the same compound?
Answer: 0.1547

Question: And the endo.mitoint.24hr?
Answer: 0

Question: And the endo.nma.24hr?
Answer: 0

Question: What about the endo.tc.24hr of the same compound?
Answer: 0.1212

Question: What about the endo.mtl.18hr of the same compound?
Answer: 0.2716

Question: What about the endo.tlps.18hr of the same compound?
Answer: 0.4577

Question: And the endo.tta.18hr?
Answer: 0.2209

Question: What about the endo.ttl.18hr of the same compound?
Answer: 0.2158

Question: What does the source list for Oc1cc(Cl)cc(-c2cccc(Cl)c2)c1 [5-OH-PCB 11]?
Answer: huvec.cyto.24hr: 0.4815; huvec.mito.24hr: 0.5672; huvec.mitoint.24hr: 0.6755; huvec.nma.24hr: 0.5619; huvec.tc.24hr: 0.4815; huvec.mtl.18hr: 0.5955; huvec.tlps.18hr: 0; huvec.tta.18hr: 0; huvec.ttl.18hr: 0.1684; cm.amp.avg.90min: 0.6478; cm.amp.cv.90min: 0.2678; cm.bpm.90min: 0.7407; cm.cam.90min: 0.7498; cm.decay.rise.90min: 0.5778; cm.mii.90min: 0.4013; cm.mito.90min: 0.8059; cm.spacing.cv.90min: 0.07982; cm.tc.90min: 0.8069; cm.amp.avg.24hrs: 0.069; cm.amp.cv.24hrs: 0.2233; cm.bpm.24hrs: 0.1451; cm.cam.24hrs: 0.2664; cm.decay.rise.24hrs: 0.2666; cm.mii.24hrs: 0.6539; cm.mito.24hrs: 0.4142; cm.spacing.cv.24hrs: 0.2695; cm.tc.24hrs: 0.5144; endo.cyto.24hr: 0.1503; endo.mito.24hr: 0.1503; endo.mitoint.24hr: 0.08226; endo.nma.24hr: 0.3443; endo.tc.24hr: 0.1482; endo.mtl.18hr: 0.3075; endo.tlps.18hr: 0.4586; endo.tta.18hr: 0.2424; endo.ttl.18hr: 0.241

Question: Which huvec.cyto.24hr does the source give for Clc1ccc(Cl)c(-c2c(Cl)ccc(Cl)c2Cl)c1Cl [(+)-PCB 136, 2,2′,3,3′,6,6′-hexachlorobiphenyl] here?
Answer: 0.7118

Question: What about the huvec.mito.24hr of the same compound?
Answer: 0.6728

Question: What about the huvec.mitoint.24hr of the same compound?
Answer: 1

Question: What about the huvec.nma.24hr of the same compound?
Answer: 0.5111

Question: What about the huvec.tc.24hr of the same compound?
Answer: 0.7118

Question: What about the huvec.mtl.18hr of the same compound?
Answer: 0.4492

Question: What about the huvec.tlps.18hr of the same compound?
Answer: 0

Question: What about the huvec.tta.18hr of the same compound?
Answer: 0

Question: And the huvec.ttl.18hr?
Answer: 0

Question: What about the cm.amp.avg.90min of the same compound?
Answer: 0.6409

Question: What about the cm.amp.cv.90min of the same compound?
Answer: 0.2396

Question: What about the cm.bpm.90min of the same compound?
Answer: 0.7987

Question: What about the cm.cam.90min of the same compound?
Answer: 0.4781

Question: What about the cm.decay.rise.90min of the same compound?
Answer: 0.1898

Question: And the cm.mii.90min?
Answer: 0.5827

Question: And the cm.mito.90min?
Answer: 0.4679

Question: And the cm.spacing.cv.90min?
Answer: 0.07704

Question: What about the cm.tc.90min of the same compound?
Answer: 0.4097

Question: And the cm.amp.avg.24hrs?
Answer: 0.5612

Question: And the cm.amp.cv.24hrs?
Answer: 0.5448

Question: What about the cm.bpm.24hrs of the same compound?
Answer: 0.7213

Question: And the cm.cam.24hrs?
Answer: 0.5816

Question: What about the cm.decay.rise.24hrs of the same compound?
Answer: 0.9212

Question: What about the cm.mii.24hrs of the same compound?
Answer: 0.1793

Question: What about the cm.mito.24hrs of the same compound?
Answer: 0.8542

Question: What about the cm.spacing.cv.24hrs of the same compound?
Answer: 0.7501

Question: What about the cm.tc.24hrs of the same compound?
Answer: 1

Question: What about the endo.cyto.24hr of the same compound?
Answer: 0.1692

Question: And the endo.mito.24hr?
Answer: 0.1692

Question: And the endo.mitoint.24hr?
Answer: 0.294

Question: What about the endo.nma.24hr of the same compound?
Answer: 0

Question: What about the endo.tc.24hr of the same compound?
Answer: 0.1732

Question: What about the endo.mtl.18hr of the same compound?
Answer: 0.04754

Question: And the endo.tlps.18hr?
Answer: 0.448

Question: What about the endo.tta.18hr of the same compound?
Answer: 0.8586

Question: And the endo.ttl.18hr?
Answer: 0.8499

Question: Clc1ccc(Cl)c(-c2c(Cl)ccc(Cl)c2Cl)c1Cl [(-)-PCB 136, 2,2′,3,3′,6,6′-hexachlorobiphenyl] was tested. Which huvec.cyto.24hr did it give?
Answer: 0.6125

Question: What about the huvec.mito.24hr of the same compound?
Answer: 0.5549

Question: What about the huvec.mitoint.24hr of the same compound?
Answer: 0.9537

Question: What about the huvec.nma.24hr of the same compound?
Answer: 0.4969

Question: And the huvec.tc.24hr?
Answer: 0.6125

Question: And the huvec.mtl.18hr?
Answer: 0.3427

Question: What about the huvec.tlps.18hr of the same compound?
Answer: 0.303

Question: And the huvec.tta.18hr?
Answer: 0.01368

Question: And the huvec.ttl.18hr?
Answer: 0

Question: And the cm.amp.avg.90min?
Answer: 0.7629

Question: And the cm.amp.cv.90min?
Answer: 0.2327

Question: And the cm.bpm.90min?
Answer: 0.26

Question: What about the cm.cam.90min of the same compound?
Answer: 0.908

Question: And the cm.decay.rise.90min?
Answer: 0.5565

Question: And the cm.mii.90min?
Answer: 0.3116

Question: And the cm.mito.90min?
Answer: 0.9077

Question: What about the cm.spacing.cv.90min of the same compound?
Answer: 0.07999

Question: What about the cm.tc.90min of the same compound?
Answer: 0.9177

Question: What about the cm.amp.avg.24hrs of the same compound?
Answer: 0.7236

Question: What about the cm.amp.cv.24hrs of the same compound?
Answer: 1

Question: What about the cm.bpm.24hrs of the same compound?
Answer: 0.3802

Question: What about the cm.cam.24hrs of the same compound?
Answer: 0.2824

Question: And the cm.decay.rise.24hrs?
Answer: 0.8976

Question: What about the cm.mii.24hrs of the same compound?
Answer: 0.3373

Question: And the cm.mito.24hrs?
Answer: 0.4521

Question: And the cm.spacing.cv.24hrs?
Answer: 0.2002

Question: And the cm.tc.24hrs?
Answer: 0.472

Question: And the endo.cyto.24hr?
Answer: 0.3713

Question: What about the endo.mito.24hr of the same compound?
Answer: 0.3713

Question: What about the endo.mitoint.24hr of the same compound?
Answer: 0.4668

Question: And the endo.nma.24hr?
Answer: 0

Question: What about the endo.tc.24hr of the same compound?
Answer: 0.3821

Question: What about the endo.mtl.18hr of the same compound?
Answer: 0.07274

Question: What about the endo.tlps.18hr of the same compound?
Answer: 0.09334

Question: What about the endo.tta.18hr of the same compound?
Answer: 0.6122

Question: What about the endo.ttl.18hr of the same compound?
Answer: 0.627

Question: What does the source list for Clc1ccc(-c2ccccc2)cc1 [PCB 3, 4-chlorobiphenyl]?
Answer: huvec.cyto.24hr: 0; huvec.mito.24hr: 0; huvec.mitoint.24hr: 0; huvec.nma.24hr: 0; huvec.tc.24hr: 0; huvec.mtl.18hr: 0.3075; huvec.tlps.18hr: 0; huvec.tta.18hr: 0.9931; huvec.ttl.18hr: 0.7484; cm.amp.avg.90min: 0.3083; cm.amp.cv.90min: 0.6784; cm.bpm.90min: 0.3832; cm.cam.90min: 0.5745; cm.decay.rise.90min: 0; cm.mii.90min: 1; cm.mito.90min: 0.6328; cm.spacing.cv.90min: 1; cm.tc.90min: 0.6608; cm.amp.avg.24hrs: 0.05114; cm.amp.cv.24hrs: 0.2083; cm.bpm.24hrs: 0.1867; cm.cam.24hrs: 0.3496; cm.decay.rise.24hrs: 0.3179; cm.mii.24hrs: 0.587; cm.mito.24hrs: 0.5833; cm.spacing.cv.24hrs: 0.1653; cm.tc.24hrs: 0.6127; endo.cyto.24hr: 0; endo.mito.24hr: 0; endo.mitoint.24hr: 0; endo.nma.24hr: 0; endo.tc.24hr: 0; endo.mtl.18hr: 0; endo.tlps.18hr: 0; endo.tta.18hr: 0; endo.ttl.18hr: 0
